The results in this text go back to ChEMBL document CHEMBL1201862, “PubChem BioAssay data set” (2004).

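Interpolation was linear, between the two tested concentrations surrounding the appropriate level; five concentrations were tested over 48 hours in 96-well plates. Here, GI50 denotes the concentration required for 50% inhibition of growth.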 Calls of active or inactive are those of the source. Rule as the data show it: active = GI50 up to about 1.1 µM and inactive = higher. Residues, ends and D or L forms follow the SMILES beside them. Groups on a side chain read outwards from the residue. *: point of attachment. Cbz = O=C(OCc1ccccc1)*; Boc = CC(C)(C)OC(=O)* Some results are limits rather than exact numbers.

Holding throughout (assay): NCI tumour cell line growth inhibition, 48 h
The subject of experiment [1] is 786-0.
For experiment [2], the system named is ACHN.
Experiment [3] concerns DU-145.
For experiment [4], the system named is KM12.
Experiment [5] relates to MDA-MB-231.
Experiment [6] deals with MDA-MB-435.
The test system of experiment [7] is NCI-H460.
Experiment [8] concerns OVCAR-4.
Experiment [9] has as its system OVCAR-8.
Experiment [10] concerns PC-3.
Experiment [11] concerns RXF 393.
For experiment [12], the system named is SF-295.
Experiment [13] has as its system SF-539.
For experiment [14], the system named is SK-OV-3.
Experiment [15] deals with SNB-19.
The test system of experiment [16] is SW-620.
For experiment [17], the system named is TK-10.
Experiment [18] relates to U-251.
Experiment [19] has as its system CCRF-CEM.
In experiment [20] the test system is SNB-75.

Take `OCCCN=C1CCCCC1`: the GI50 in experiment [1], in experiment [2], in [3], in [4], in experiment [5] and in experiment [6] was > 100 µM (inactive) each time. Also, the GI50 in experiment [7], in [8], in experiment [9], in experiment [10], in experiment [11] and in [12] was > 100 µM (inactive) throughout. Moreover, the GI50 in experiment [13], in [14], in experiment [15], in experiment [16], in [17] and in [18] was > 100 µM (inactive) throughout.
As for `Cc1cc(C)n(-c2nc3ccccc3c(=O)[nH]2)n1`, the GI50 is 2.24 µM (inactive) in experiment [1]; 2.49 µM (inactive) in experiment [2]; 0.356 µM (active) in experiment [19]; 5.89 µM (inactive) in experiment [3]; 5.94 µM (inactive) in [4]; 11 µM (inactive) in [5]. The GI50 was 1.86 µM (inactive) in experiment [6]; 1.21 µM (inactive) in experiment [7]; 56.6 µM (inactive) in experiment [8]; 0.863 µM (active) in experiment [9]; 5.96 µM (inactive) in experiment [10]; 2.1 µM (inactive) in experiment [12]. Also, the GI50 was 4.4 µM (inactive) in experiment [13]; 8.65 µM (inactive) in experiment [14]; 11.9 µM (inactive) in experiment [15]; 14.1 µM (inactive) in experiment [20]; 3.28 µM (inactive) in [16]; > 50.8 µM (inactive) in experiment [17]. The GI50 in [18] is 3.24 µM (inactive).
With `O=C1CSC(c2cccc([N+](=O)[O-])c2)N1c1ccc(-c2ccc(-n3c(-c4ccccc4)nc4ccccc4c3=O)cc2)cc1` (stereo not drawn), the GI50 in experiment [1] is 24.6 µM (inactive); in experiment [2] it was 27 µM (inactive); in experiment [19], 23 µM (inactive); in experiment [3], 38.4 µM (inactive); in experiment [4] it was 21.8 µM (inactive); in [5], 29.9 µM (inactive). Further, the GI50 in [6] was 27 µM (inactive); in [7], 25.5 µM (inactive); in experiment [8], 25.2 µM (inactive); in experiment [9] it was 40.7 µM (inactive); in experiment [10], 21.9 µM (inactive); in [12], 45.8 µM (inactive). Besides, the GI50 in experiment [13] was 46.5 µM (inactive); in experiment [14], > 100 µM (inactive); in experiment [15], 59.6 µM (inactive); in experiment [16], 40 µM (inactive); in experiment [17], > 100 µM (inactive); in experiment [18] it was 33.5 µM (inactive).
Consider `CCOC(=O)[C@@H]1C[C@@H]1c1ccc(O)c(O)c1`, for which the GI50 in experiment [1] is 16.1 µM (inactive); in [2], 42.8 µM (inactive); in [3] it was 64 µM (inactive); in experiment [4] it was 26 µM (inactive); in experiment [5], 11 µM (inactive); in [6], 16.9 µM (inactive). In addition, the GI50 in experiment [7] is 58.9 µM (inactive); in experiment [9] it was 21.8 µM (inactive); in [10], 12.7 µM (inactive); in experiment [11] it was 21.1 µM (inactive); in [12], 59.7 µM (inactive); in experiment [13], 20.6 µM (inactive). The GI50 in experiment [14] is 44.8 µM (inactive); in [15], 49 µM (inactive); in experiment [16], 14.3 µM (inactive); in experiment [17], > 100 µM (inactive); in experiment [18], 72.1 µM (inactive).
Turning to `O=C1CC(c2ccccc2)[S+]([O-])c2ccccc2N1` (stereo not drawn), the GI50 in experiment [1], in experiment [2], in experiment [19], in experiment [3], in experiment [4] and in [5] was > 100 µM (inactive) throughout. Further, the GI50 in [6] is > 100 µM (inactive); in experiment [7] it was > 100 µM (inactive); in [8], > 100 µM (inactive); in experiment [9], 61.7 µM (inactive); in experiment [10] it was > 100 µM (inactive); in experiment [12] it was > 10 µM (inactive). Also, the GI50 in experiment [14], in experiment [15], in [20], in experiment [17] and in [18] was > 100 µM (inactive) each time.
With `CN1C(=O)C2CCC(=O)N2c2cccnc21` (stereo not drawn), the GI50 in experiment [1], in experiment [2], in [19], in experiment [3], in [4] and in [5] was > 100 µM (inactive) throughout. Also, the GI50 in experiment [6], in [7], in experiment [8], in experiment [9], in experiment [12] and in experiment [13] was > 100 µM (inactive) throughout. The GI50 in experiment [15], in experiment [16], in experiment [17] and in experiment [18] was > 100 µM (inactive) in each case.
As for `CC(C)CC(NC(=O)OCc1ccccc1)C(=O)NCCCCC(NC(=O)C(CCCCNC(=O)C(CC(C)C)NC(=O)OCc1ccccc1)NC(=O)C(CCCCNC(=O)C(CC(C)C)NC(=O)OCc1ccccc1)NC(=O)C(CCCCNC(=O)C(CC(C)C)NC(=O)OCc1ccccc1)NC(=O)OC(C)(C)C)C(=O)O` (stereo not drawn) (Boc-K([Leu-Cbz])K([Leu-Cbz])K([Leu-Cbz])K([Leu-Cbz])-OH; configuration not given here), the GI50 in experiment [1], in [2], in experiment [19], in experiment [3], in [5] and in experiment [6] was > 25 µM (inactive) each time. In addition, the GI50 in experiment [7], in experiment [8], in [9], in [10], in experiment [15] and in [20] was > 25 µM (inactive) each time. Besides, the GI50 in [16], in experiment [17] and in [18] was > 25 µM (inactive) in each case.
Consider `N#CC(=N)c1ncn(-c2ccc(N)cc2)c1N`, for which the GI50 in [1], in experiment [2], in experiment [19], in experiment [3], in experiment [4] and in experiment [5] was > 100 µM (inactive) each time. The GI50 in experiment [6], in experiment [7], in experiment [8], in [9], in experiment [10] and in [12] was > 100 µM (inactive) in each case. The GI50 in [13], in [14], in experiment [15], in experiment [20], in experiment [16] and in [17] was > 100 µM (inactive) in each case. For the same compound, the GI50 in experiment [18] was > 100 µM (inactive).
With `COc1cc(C2=NNC(=O)c3ccccc3N2c2nc(-c3cccs3)nc3ccc(Br)cc23)cc(OC)c1OC`, the GI50 is 6.95 µM (inactive) in [1]; 7.11 µM (inactive) in experiment [2]; 1.45 µM (inactive) in experiment [19]; 14.7 µM (inactive) in [3]; 4.8 µM (inactive) in [4]; 17.9 µM (inactive) in [5]. Besides, the GI50 was 6.82 µM (inactive) in experiment [6]; 2.91 µM (inactive) in experiment [7]; 4.55 µM (inactive) in [8]; 4.62 µM (inactive) in experiment [9]; 10.3 µM (inactive) in experiment [10]; 5.06 µM (inactive) in experiment [12]. The GI50 in experiment [13] is 10.9 µM (inactive); in [14], 65.6 µM (inactive); in experiment [15], 22.6 µM (inactive); in experiment [20] it was 55 µM (inactive); in [16], 18.4 µM (inactive); in experiment [17] it was 23.2 µM (inactive). Also, the GI50 in experiment [18] is 6.1 µM (inactive).
For `COC(=O)c1cc(-c2c[nH]cc2C(=O)OCc2ccccc2)cn1S(=O)(=O)c1ccc(C)cc1`, the GI50 in experiment [1], in [2], in experiment [19], in experiment [3], in [4] and in experiment [5] was > 100 µM (inactive) in each case. Further, the GI50 in experiment [7] is 57.3 µM (inactive); in experiment [8] it was > 100 µM (inactive); in experiment [9], > 100 µM (inactive); in experiment [10], 36.7 µM (inactive); in experiment [11], > 100 µM (inactive); in experiment [12] it was > 100 µM (inactive). For the same compound, the GI50 in [13] was > 100 µM (inactive); in [14], > 100 µM (inactive); in experiment [15], > 100 µM (inactive); in [20], > 100 µM (inactive); in [17], > 100 µM (inactive); in experiment [18] it was > 10 µM (inactive).
Regarding `Cc1c(-c2ccccc2)n(C)c2cn[nH]c(=O)c12`, the GI50 was 23.3 µM (inactive) in [1]; 44.3 µM (inactive) in experiment [2]; 40.2 µM (inactive) in experiment [19]; 67.8 µM (inactive) in experiment [3]; 37.5 µM (inactive) in [4]; 17.9 µM (inactive) in experiment [5]. Further, the GI50 in [6] is 33.1 µM (inactive); in experiment [7], 63.8 µM (inactive); in experiment [9], 39.2 µM (inactive); in experiment [10] it was 19.7 µM (inactive); in [12], 25.2 µM (inactive); in [13] it was 45 µM (inactive). Moreover, the GI50 in experiment [14] is 27.1 µM (inactive); in experiment [15] it was > 100 µM (inactive); in [16], 47.1 µM (inactive); in experiment [17] it was 41.4 µM (inactive); in [18], 32.3 µM (inactive).
